Common to all, as to type: in vivo
For test [1], the system named is mice. In words: Forced Swim Test. The procedure: Forced Swim Test. The test apparatus consisted of a clear plastic cylindrical tank, 35 cm high and 25 cm in diameter, which was filled to a depth of 25 cm with tap water equilibrated overnight to room temperature (24° C.). A glass plate covered the top of the tank to prevent escape while the mouse was swimming. The water in the tank was replaced by fresh water at room temperature after three mice had been tested. To habituate the mouse, it was forced to swim in the tank for 15 min., then removed and dried by toweling and a heat lamp, and returned to its cage. Twenty-four hours later, the mouse was returned to the tank and allowed to swim for 5 min. while its swimming activity was recorded by a video camera, mounted above the tank. After this, the mouse was dried and returned to its cage. End points of the test were total time spent floating in an immobile position, without paddling of limbs (swimming) (Porsolt et al. Nature (1977) 266:730-732).

Test [2] deals with mice. The experiment in a line: Hot plate test. The note with it: peroral administration, 50 mg/kg, plate 55.0±0.5° C., 30 min after compound. The procedure:
Hot plate test. Male mice weighing from 25 to 30 g were used in this test. […] The surface of the plate was maintained at a temperature of 55.0±0.5° C. […] Time (in seconds) to either hind paw licking or jumping was recorded as pain response latency. To avoid the likelihood of tolerance of mice to hot plate, all mice were exposed to hot plate only once through the whole experiment. The mice were exposed to hot plate only once; either before or after injection of drug.
A general note: In hot-plate and tail-flick tests a longer latency is read as antinociception.

In test [3] the test system is mice. The experiment in a line: Tail-flick test. As for the experimental part: Tail-flick test. The tail-flick test, using a radiant heat source was carried out to study antinociception. Each mouse was placed in an acrylic tube and its tail was laid across a Nichrome™ wire coil, which was heated by the passage of an electric current. The intensity of the current was kept at 5 mA. All animals were screened for the tail-flick response. Only those showing a flick within 4 sec were included in the study. After 1 h of final dosing, the mice were submitted to three tail-flick tests.

Test [4] deals with mice. In words: Formalin paw test. Particulars: formalin 4.5%, 20 μl, left hind paw, dose 30 mg/kg, compared to control. The procedure:
Formalin paw test. The mice received an injection of formalin (4.5%, 20 μl) to the left hind paw. The irritation caused by the formalin injection elicits a characteristic biphasic behavioral response as quantified by the amount of time spent licking the injured paw. The first phase (˜5-10 minutes) represents direct chemical […], and the second phase (˜20-30 minutes) is thought to represent pain of neuropathic origin (Tjølsen A et al. Pain (1992) 51:5-17). The two phases are separated by a quiescent period in which behavior returns to normal. The effectiveness of test compounds to reduce the painful stimuli is assessed by counting the amount of time spent licking the injured paw in the two phases.

Consider `NC(=O)N1c2ccccc2C=Cc2ccccc21` [carbamazepine], for which the “antidepressive effect (total time spent floating immobile)” value (“antidepressive effect” for short) in the test on mice [1] (50 mg/kg) is reported as “significant effect”.

As for `CCCC(CCC)C(=O)[O-].[Na+]` [sodium valproate], the “antidepressive effect” value with mice [1] (250 mg/kg) was “significant effect”.

For the compound `O=C1CNC(=O)/C1=C\NCc1ccccc1` [tetramic derivative of the invention], the “analgesic effect (pain response latency, hot plate)” value in the test on mice [2] is “analgesic effect”. Further, the “analgesic effect (tail-flick) compared to phenytoin and valproate” value in the test on mice [3] (highest dose tested 500 mg/kg, versus phenytoin 100 mg/kg and valproate 500 mg/kg) is given as “relatively better analgesic effect”. In the test with mice [3] (peroral administration, 1 h after final dosing), the “analgesic effect (tail-flick)” value is recorded as “analgesic effect”. Also, in the test on mice [4], the “reduction in pain score in the chronic phase” value stood at 5%. Moreover, the “antidepressive effect” value in the test with mice [1] (100 mg/kg) is on record as “significant antidepressive effect”.

(Values after patent US20090069405A1, “TREATMENT OF CNS AND PAIN DISORDERS” (Valexfarm, Ltd., priority 2007, published 2009).)
